Where two headings read alike, the source gives them in different places.
Assays:
Type in all cases: cell-based
hGCGR = target: T1, hGCGR (Homo sapiens, UniProt P47871); test: Functional cAMP formation (HTRF) in HEK-293 clonal cells expressing hGCGR, 0.1% bovine casein, without or with 1.0% human serum albumin; settings: cAMP, 37° C.
T1 construct: expressed in transfected cells
Method in brief: (§1)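 Readings of the HTRF 665/620 nm ratio, which falls as cAMP rises, were converted to nM cAMP using a standard curve after 30 min peptide exposure at 37° C.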

hGLP-1R = hGLP-1R (Homo sapiens, UniProt P43220); test: Functional cAMP formation (HTRF) in HEK-293 clonal cells expressing hGLP-1R, 0.1% bovine casein, without or with 1.0% human serum albumin; set-up: expressed in transfected cells; settings: for Emax: percent of maximal response to GLP-1(7-36)NH2; for EC50: cAMP, 0.1% bovine casein (no human serum albumin), geometric mean
Method in brief: as §1

hGIPR = target: T2, hGIPR (Homo sapiens, UniProt P48546); test: Functional cAMP formation (HTRF) in HEK-293 clonal cells expressing hGIPR, 0.1% bovine casein, without or with 1.0% human serum albumin; settings: for Emax: percent of maximal response to GIP(1-42)NH2; for EC50: cAMP
T2 construct: expressed in transfected cells
T2 sequence (P48546 22-466): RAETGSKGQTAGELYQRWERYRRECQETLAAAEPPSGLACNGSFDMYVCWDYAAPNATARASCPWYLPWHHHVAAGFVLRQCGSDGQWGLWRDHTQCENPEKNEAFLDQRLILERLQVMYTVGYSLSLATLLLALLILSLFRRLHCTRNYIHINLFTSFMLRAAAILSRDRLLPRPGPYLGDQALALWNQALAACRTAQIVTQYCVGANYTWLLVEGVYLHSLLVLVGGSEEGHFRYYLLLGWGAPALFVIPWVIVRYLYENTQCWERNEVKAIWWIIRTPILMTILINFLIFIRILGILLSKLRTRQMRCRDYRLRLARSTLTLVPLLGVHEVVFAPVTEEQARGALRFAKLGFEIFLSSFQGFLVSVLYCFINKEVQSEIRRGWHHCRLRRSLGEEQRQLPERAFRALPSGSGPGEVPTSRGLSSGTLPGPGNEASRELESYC
Method in brief: as §1

[1] = 0.1% bovine casein (no human serum albumin), geometric mean, read-out: hGCGR EC50, nM (SEM, n)
[2] = 0.1% bovine casein and 1.0% human serum albumin, geometric mean (SEM, n), read-out: hGCGR EC50, nM (SEM, n)
[3] = HEK293, cAMP, 37° C., 0.1% bovine casein and 1.0% human serum albumin, read-out: hGLP-1R Emax, % ± SEM
[4] = 37° C., read-out: hGLP-1R EC50, nM (SEM, n)
[5] = HEK293, cAMP, 37° C., 0.1% bovine casein and 1.0% human serum albumin, read-out: hGIPR Emax, % ± SEM
[6] = 37° C., 0.1% bovine casein (no human serum albumin), geometric mean, read-out: hGIPR EC50, nM (SEM, n)
[7] = 37° C., 0.1% bovine casein and 1.0% human serum albumin, geometric mean (SEM, n), read-out: hGIPR EC50, nM (SEM, n)

T1 sequence (P47871 26-477): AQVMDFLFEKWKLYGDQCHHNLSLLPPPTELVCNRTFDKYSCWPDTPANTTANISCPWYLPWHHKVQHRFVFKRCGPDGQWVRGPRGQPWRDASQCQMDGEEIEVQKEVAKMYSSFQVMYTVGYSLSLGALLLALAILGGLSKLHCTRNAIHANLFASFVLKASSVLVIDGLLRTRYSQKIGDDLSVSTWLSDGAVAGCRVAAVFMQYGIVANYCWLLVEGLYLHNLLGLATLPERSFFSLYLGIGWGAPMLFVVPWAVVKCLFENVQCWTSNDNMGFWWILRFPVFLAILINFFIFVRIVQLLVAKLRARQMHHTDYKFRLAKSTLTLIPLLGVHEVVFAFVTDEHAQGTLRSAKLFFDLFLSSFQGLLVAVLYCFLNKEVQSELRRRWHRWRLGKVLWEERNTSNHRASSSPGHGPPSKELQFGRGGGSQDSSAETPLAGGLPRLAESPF
hGLP-1R, sequence (P43220 24-463): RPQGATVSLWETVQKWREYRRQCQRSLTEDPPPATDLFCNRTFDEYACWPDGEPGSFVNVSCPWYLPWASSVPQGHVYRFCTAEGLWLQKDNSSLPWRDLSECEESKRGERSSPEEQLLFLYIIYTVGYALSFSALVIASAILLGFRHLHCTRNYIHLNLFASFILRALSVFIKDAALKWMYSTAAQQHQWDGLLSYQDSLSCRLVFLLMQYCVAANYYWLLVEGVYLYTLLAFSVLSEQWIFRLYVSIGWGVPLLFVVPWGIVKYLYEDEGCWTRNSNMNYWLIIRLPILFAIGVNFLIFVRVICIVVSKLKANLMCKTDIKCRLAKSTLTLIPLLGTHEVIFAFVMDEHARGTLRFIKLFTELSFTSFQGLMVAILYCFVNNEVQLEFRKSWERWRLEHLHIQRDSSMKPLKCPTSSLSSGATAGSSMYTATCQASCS

SMILES | EC50 (hGCGR; [1]) [nM] | EC50 (hGCGR; [2]) [nM] | Emax (hGLP-1R; [3]) [%] | EC50 (hGLP-1R; [4]) [nM] | Emax (hGIPR; [5]) [%] | EC50 (hGIPR; [6]) [nM] | EC50 (hGIPR; [7]) [nM] | EC50 (hGCGR; hGCGR EC50, nM (SEM, n), 0.1% bovine casein (no human serum albumin), geometric mean) [nM] | EC50 (hGCGR; hGCGR EC50, nM (SEM, n), 0.1% bovine casein and 1.0% human serum albumin, geometric mean (SEM, n)) [nM] | Emax (hGLP-1R; HEK293, read-out: hGLP-1R Emax, % ± SEM, cAMP, 37° C., 0.1% bovine casein, arithmetic mean) [%] | EC50 (hGLP-1R; hGLP-1R EC50, nM (SEM, n), 37° C.) [nM] | Emax (hGIPR; HEK293, read-out: hGIPR Emax, % ± SEM, cAMP, 37° C., 0.1% bovine casein and 1.0% human serum albumin) [%] | EC50 (hGIPR; hGIPR EC50, nM (SEM, n), 37° C., 0.1% bovine casein (no human serum albumin), geometric mean) [nM] | Emax (hGIPR; HEK293, cAMP, 37° C., 0.1% bovine casein, arithmetic mean, read-out: hGIPR Emax, % ± SEM) [%]
CC[C@H](C)[C@H](NC(=O)[C@H](CC(C)C)NC(=O)[C@](C)(Cc1ccc(O)cc1)NC(=O)[C@@H](CCC(=O)O)NC(=O)[C@@H](NC(=O)[C@H](Cc1ccccc1)NC(=O)[C@H](CCCCNC(=O)COCCOCCNC(=O)COCCOCCNC(=O)CC[C@H](NC(=O)CCCCCCCCCCCCC(=O)O)C(=O)O)NC(=O)C(C)(C)NC(=O)[C@H](CCC(N)=O)NC(=O)[C@H](C)NC(=O)[C@H](CCCCNC(=O)COCCOCCNC(=O)COCCOCCNC(=O)CC[C@H](NC(=O)CCCCCCCCCCCCC(=O)O)C(=O)O)NC(=O)[C@H](CCCN)NC(=O)[C@H](CC(=O)O)NC(=O)[C@H](CC(C)C)NC(=O)[C@](C)(CC(C)C)NC(=O)[C@@H](NC(=O)C(C)(C)NC(=O)[C@H](Cc1ccncc1)NC(=O)[C@H](CC(=O)O)NC(=O)[C@H](CO)NC(=O)[C@@H](NC(=O)[C@](C)(Cc1ccccc1F)NC(=O)[C@@H](NC(=O)CNC(=O)[C@H](CCC(=O)O)NC(=O)C(C)(C)NC(=O)[C@@H](N)Cc1ccc(O)cc1)[C@@H](C)O)[C@@H](C)O)[C@@H](C)CC)[C@@H](C)CC)C(=O)N[C@@H](CCC(=O)O)C(=O)NCC(=O)NCC(=O)N1CCC[C@H]1C(=O)N[C@@H](CO)C(=O)N[C@@H](CO)C(=O)NCC(=O)N[C@@H](C)C(=O)N1CCC[C@H]1C(=O)N1CCC[C@H]1C(=O)N1CCC[C@H]1C(=O)N[C@@H](CO)C(N)=O [Example 357] | > 10100 | > 9950 | 92.8 | 0.649 | 78.2 | 0.011 | – | – | – | – | – | – | – | –
CC[C@H](C)[C@H](NC(=O)[C@H](CC(C)C)NC(=O)[C@](C)(Cc1ccc(O)cc1)NC(=O)[C@@H](CCC(=O)O)NC(=O)[C@@H](NC(=O)[C@H](Cc1ccccc1)NC(=O)[C@H](CCC(=O)O)NC(=O)C(C)(C)NC(=O)[C@H](CCC(N)=O)NC(=O)[C@H](C)NC(=O)[C@H](CCCCNC(=O)COCCOCCNC(=O)COCCOCCNC(=O)CC[C@H](NC(=O)CCCCCCCCCCCCC(=O)O)C(=O)O)NC(=O)[C@H](CCCN)NC(=O)[C@H](CC(=O)O)NC(=O)[C@H](CC(C)C)NC(=O)[C@](C)(CC(C)C)NC(=O)[C@@H](NC(=O)C(C)(C)NC(=O)[C@H](Cc1ccncc1)NC(=O)[C@H](CC(=O)O)NC(=O)[C@H](CO)NC(=O)[C@@H](NC(=O)[C@](C)(Cc1ccccc1F)NC(=O)[C@@H](NC(=O)CNC(=O)[C@H](CCC(=O)O)NC(=O)C(C)(C)NC(=O)[C@@H](N)Cc1ccc(O)cc1)[C@@H](C)O)[C@@H](C)O)[C@@H](C)CC)[C@@H](C)CC)C(=O)N[C@@H](CCCCNC(=O)COCCOCCNC(=O)COCCOCCNC(=O)CC[C@H](NC(=O)CCCCCCCCCCCCC(=O)O)C(=O)O)C(=O)NCC(=O)NCC(=O)N1CCC[C@H]1C(=O)N[C@@H](CO)C(=O)N[C@@H](CO)C(=O)NCC(=O)N[C@@H](C)C(=O)N1CCC[C@H]1C(=O)N1CCC[C@H]1C(=O)N1CCC[C@H]1C(=O)N[C@@H](CO)C(N)=O [Example 358] | > 10100 | > 9950 | – | 0.773 | 86.2 | 0.0137 | 2.06 | – | – | – | – | – | – | –
CC[C@H](C)[C@H](NC(=O)[C@H](CC(C)C)NC(=O)[C@](C)(Cc1ccc(O)cc1)NC(=O)[C@@H](CCC(=O)O)NC(=O)[C@@H](NC(=O)[C@H](Cc1ccccc1)NC(=O)[C@H](CCC(=O)O)NC(=O)C(C)(C)NC(=O)[C@H](CCC(N)=O)NC(=O)[C@H](C)NC(=O)[C@H](CCCCNC(=O)COCCOCCNC(=O)COCCOCCNC(=O)CC[C@H](NC(=O)CCCCCCCCCCCCC(=O)O)C(=O)O)NC(=O)[C@H](CCCN)NC(=O)[C@H](CC(=O)O)NC(=O)[C@H](CC(C)C)NC(=O)[C@](C)(CC(C)C)NC(=O)[C@@H](NC(=O)C(C)(C)NC(=O)[C@H](Cc1ccncc1)NC(=O)[C@H](CC(=O)O)NC(=O)[C@H](CO)NC(=O)[C@@H](NC(=O)[C@](C)(Cc1ccccc1F)NC(=O)[C@@H](NC(=O)CNC(=O)[C@H](CCC(=O)O)NC(=O)C(C)(C)NC(=O)[C@@H](N)Cc1ccc(O)cc1)[C@@H](C)O)[C@@H](C)O)[C@@H](C)CC)[C@@H](C)CC)C(=O)N[C@@H](CCC(=O)O)C(=O)NCC(=O)NCC(=O)N1CCC[C@H]1C(=O)N[C@@H](CO)C(=O)N[C@@H](CO)C(=O)NCC(=O)N[C@@H](C)C(=O)N1CCC[C@H]1C(=O)N1CCC[C@H]1C(=O)N1CCC[C@H]1C(=O)N[C@@H](CO)C(=O)N[C@@H](CCCCNC(=O)COCCOCCNC(=O)COCCOCCNC(=O)CC[C@H](NC(=O)CCCCCCCCCCCCC(=O)O)C(=O)O)C(N)=O [Example 359] | > 10100 | > 9950 | 95.1 | 1.18 | 81 | 0.0261 | – | – | – | – | – | – | – | –
CC[C@H](C)[C@H](NC(=O)[C@H](CC(C)C)NC(=O)[C@](C)(Cc1ccc(O)cc1)NC(=O)[C@@H](CCC(=O)O)NC(=O)[C@@H](NC(=O)[C@H](Cc1ccccc1)NC(=O)[C@H](CCC(=O)O)NC(=O)C(C)(C)NC(=O)[C@H](CCC(N)=O)NC(=O)[C@H](C)NC(=O)[C@H](CCCCNC(=O)COCCOCCNC(=O)CC[C@H](NC(=O)CCCCCCCCCOc1ccc(C(=O)O)cc1)C(=O)O)NC(=O)[C@H](CCCN)NC(=O)[C@H](CC(=O)O)NC(=O)[C@H](CC(C)C)NC(=O)[C@](C)(CC(C)C)NC(=O)[C@@H](NC(=O)C(C)(C)NC(=O)[C@H](Cc1ccncc1)NC(=O)[C@H](CC(=O)O)NC(=O)[C@H](CO)NC(=O)[C@@H](NC(=O)[C@](C)(Cc1ccccc1F)NC(=O)[C@@H](NC(=O)CNC(=O)[C@H](CCC(=O)O)NC(=O)C(C)(C)NC(=O)[C@@H](N)Cc1ccc(O)cc1)[C@@H](C)O)[C@@H](C)O)[C@@H](C)CC)[C@@H](C)CC)C(=O)N[C@@H](CCC(=O)O)C(=O)NCC(=O)NCC(=O)N1CCC[C@H]1C(=O)N[C@@H](CO)C(=O)N[C@@H](CO)C(=O)NCC(=O)N[C@@H](C)C(=O)N1CCC[C@H]1C(=O)N1CCC[C@H]1C(=O)N1CCC[C@H]1C(=O)N[C@@H](CO)C(=O)N[C@@H](CCCCNC(=O)COCCOCCNC(=O)CC[C@H](NC(=O)CCCCCCCCCOc1ccc(C(=O)O)cc1)C(=O)O)C(N)=O [Example 362] | – | – | – | – | – | – | – | > 10100 | > 9950 | 109 | 0.34 | 86.7 | 0.0131 | –
CC[C@H](C)[C@H](NC(=O)[C@H](CCCN)NC(=O)[C@H](CC(=O)O)NC(=O)[C@H](CC(C)C)NC(=O)[C@](C)(CC(C)C)NC(=O)[C@@H](NC(=O)C(C)(C)NC(=O)[C@H](Cc1ccc(O)cc1)NC(=O)[C@H](CC(=O)O)NC(=O)[C@H](CO)NC(=O)[C@@H](NC(=O)[C@](C)(Cc1ccccc1F)NC(=O)[C@@H](NC(=O)CNC(=O)[C@H](CCC(=O)O)NC(=O)C(C)(C)NC(=O)[C@@H](N)Cc1ccc(O)cc1)[C@@H](C)O)[C@@H](C)O)[C@@H](C)CC)C(=O)N[C@@H](C)C(=O)N[C@@H](CCC(N)=O)C(=O)NC(C)(C)C(=O)N[C@@H](CCC(=O)O)C(=O)N[C@@H](Cc1ccccc1)C(=O)N[C@H](C(=O)N[C@@H](CCCCNC(=O)COCCOCCNC(=O)COCCOCCNC(=O)CC[C@H](NC(=O)COCCOCCNC(=O)CCCCCCCCCCCCC(=O)O)C(=O)O)C(=O)N[C@@](C)(Cc1ccc(O)cc1)C(=O)N[C@@H](CC(C)C)C(=O)N[C@H](C(=O)N[C@@H](CCCCNC(=O)COCCOCCNC(=O)COCCOCCNC(=O)CC[C@H](NC(=O)COCCOCCNC(=O)CCCCCCCCCCCCC(=O)O)C(=O)O)C(=O)NCC(=O)NCC(=O)N1CCC[C@H]1C(=O)N[C@@H](CO)C(=O)N[C@@H](CO)C(=O)NCC(=O)N[C@@H](C)C(=O)N1CCC[C@H]1C(=O)N1CCC[C@H]1C(=O)N1CCC[C@H]1C(=O)N[C@@H](CO)C(N)=O)[C@@H](C)CC)[C@@H](C)CC [Example 363] | > 9950 | > 9950 | 111 | 0.34 | 91.1 | 0.0183 | 0.976 | – | – | – | – | – | – | 111
